In PubChem BioAssay (NCI):
Several values for one entry are separate records, joined by “and”; a condition that tells them apart may be missing. Equal entries are not always repeated.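 The compound was tested at five concentrations on cells cultured in 96-well plates, with a 48-hour exposure period. The concentration for 50% growth inhibition is given as GI50. The concentration for full growth arrest is given as TGI.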

Key:
Assay in all cases: growth of human tumour cells (NCI), 48 h
CAKI-1 renal = test system: CAKI-1 renal
OVCAR-4 ovarian = test system: OVCAR-4 ovarian
SK-MEL-28 melanoma = test system: SK-MEL-28 melanoma
KM12 colon = test system: KM12 colon
NCI-H522 lung = test system: NCI-H522 lung
U251 CNS = test system: U251 CNS
A498 renal = test system: A498 renal
HCT-15 colon = test system: HCT-15 colon
SNB-75 CNS = test system: SNB-75 CNS
T-47D breast = test system: T-47D breast

| Structure (SMILES) | TGI (CAKI-1 renal) [µM] | TGI (OVCAR-4 ovarian) | TGI (SK-MEL-28 melanoma) | TGI (KM12 colon) | TGI (NCI-H522 lung) | TGI (U251 CNS) [µM] | TGI (A498 renal) [µM] | TGI (HCT-15 colon) [µM] | TGI (SNB-75 CNS) | GI50 (SK-MEL-28 melanoma) [µM] | GI50 (A498 renal) [µM] | GI50 (NCI-H522 lung) | GI50 (SNB-75 CNS) [nM] | GI50 (CAKI-1 renal) [µM] | GI50 (OVCAR-4 ovarian) [µM] | GI50 (KM12 colon) [µM] | GI50 (T-47D breast) [µM] | TGI (T-47D breast) [µM] | GI50 (HCT-15 colon) [µM] | GI50 (U251 CNS) [µM] |
| --- | --- | --- | --- | --- | --- | --- | --- | --- | --- | --- | --- | --- | --- | --- | --- | --- | --- | --- | --- | --- |
| Cc1[nH]n(C(=O)c2ccc(Cl)cc2)c(=O)c1/C=C1\C(O)=CC(=O)c2ccccc21 | > 100 | > 100 µM | > 100 µM | > 100 µM | > 100 µM | > 100 | > 100 |  |  |  |  |  |  |  |  |  |  |  |  |  |
| Cc1c(C(=O)C/C(=N/NC(=O)CC#N)C(N)=O)[n+](=O)c2ccccc2n1[O-] | > 100 | > 100 µM | > 100 µM | > 100 µM | 51.6 µM | > 100 | > 100 | > 100 | > 100 µM |  |  |  |  |  |  |  |  |  |  |  |
| CC1=C2[C@@H](c3ccccc3)C3C=CC2(C=C3C(F)(F)F)N(C(=O)NC2CCCCC2)C1=O (some centres not stated) | > 100 | > 100 µM | > 100 µM | > 100 µM |  | > 100 | > 100 | > 100 | > 100 µM |  |  |  |  |  |  |  |  |  |  |  |
| O=[N+]([O-])c1cccc(C2=NOC3CCCC23)c1 (configuration not stated) | > 100 | > 100 µM | > 100 µM | > 100 µM | > 100 µM | > 100 | > 100 | > 100 | > 100 µM |  |  |  |  |  |  |  |  |  |  |  |
| CCOC(=O)c1c(/C=N\Nc2ccccc2)nc2ccccc2c1-c1ccccc1 | > 100 | > 100 µM | > 100 µM | > 100 µM | 67.1 µM | > 100 | > 100 | > 100 | > 100 µM |  |  |  |  |  |  |  |  |  |  |  |
| Cc1cc(C2(c3cc(C)c(O)c4ncccc34)OC(=O)c3ccccc32)c2cccnc2c1O | 1.07 | > 100 µM | > 100 µM | > 100 µM | > 100 µM | > 100 | > 100 |  | 6.82 µM and 8.1 µM | > 100 | 12.3 |  |  |  |  |  |  |  |  |  |
| Cc1c2cc[n+](C)cc2c(C)c2c1[nH]c1ccc(Oc3ccccc3)cc12 | > 100 | 36.5 µM and > 68.7 µM | > 27.3 µM and 21.3 µM | 18.8 µM and > 100 µM | 12.1 µM and 8.56 µM | > 100 | > 100 | > 100 | 4.36 µM and 5.27 µM |  |  | 2410 nM and 743 nM | 549 |  |  |  |  |  |  |  |
| NC(=O)NC(=O)C1CCC(=O)N1S(=O)(=O)c1ccc(Cl)cc1 (configuration not stated) | > 100 | > 100 µM | > 100 µM | > 100 µM | > 100 µM | > 100 |  | > 100 | > 100 µM |  |  |  |  |  |  |  |  |  |  |  |
| CCCNc1ncnc2c1cnn2C | > 100 | > 100 µM | > 100 µM | > 100 µM | > 100 µM | > 100 | > 100 | > 100 | > 100 µM |  |  |  |  |  |  |  |  |  |  |  |
| CCOC(=O)NC/C=C/CO | > 100 | > 100 µM | > 100 µM | > 100 µM | > 100 µM | > 100 | > 100 | > 100 | > 100 µM |  |  |  |  |  |  |  |  |  |  |  |
| COc1ccc(-c2ccc(/C=N/n3c(COc4ccc(Cl)c(C)c4)nn(CN4CCOCC4)c3=S)o2)c([N+](=O)[O-])c1 | 57.1 | 76.7 µM | 53.7 µM | > 100 µM | > 100 µM | > 100 | 25.7 | > 100 |  | 20.5 | 12.4 | 25500 nM |  | 23.6 | 31.9 | 29.1 | 44.1 | > 100 | 30.7 | 30.5 |
| CCOC(=O)/C(=C/c1ccc[nH]1)P(=O)(OCC)OCC | > 100 | > 100 µM | > 100 µM | > 100 µM | > 100 µM | > 100 |  |  | > 100 µM |  |  |  |  |  |  |  |  |  |  |  |
| CCNc1nc(-c2ccc(Cl)c(OC)c2)c(-c2ccnc(NCCNS(=O)(=O)c3ccc(Cl)cc3)n2)s1 |  | > 100 µM | > 100 µM | > 100 µM | 4.35 µM | 10.3 | 6.52 | > 100 | 29.8 µM | 3.33 | 1.5 | 1920 nM | 2350 |  | 3.82 | 3.52 | 2.48 | 8.02 | 3.36 | 3.24 |
| CN(C)c1ccc(/C=C2\Cc3ccccc3C2=O)cc1Br | > 100 | > 100 µM | > 100 µM | > 100 µM | 70.6 µM | > 100 | > 100 | > 100 | > 100 µM |  |  |  |  |  |  |  |  |  |  |  |
| Cn1ncc2c(c1=O)Nc1ccccc1S2(=O)=O | > 100 | > 100 µM | > 100 µM | > 100 µM | > 100 µM | > 100 | > 100 | > 100 | > 100 µM |  |  |  |  |  |  |  |  |  |  |  |
| Cc1nc(-c2cccnc2)sc1C(=O)/C=C/c1ccc(Cl)cc1Cl | > 100 |  | > 100 µM | > 100 µM | > 100 µM | > 100 | > 100 | > 100 | > 100 µM |  |  |  |  |  |  |  |  |  |  |  |
| NC1CC(n2ccc(=O)[nH]c2=O)OC1C(O)CO (configuration not stated) |  | > 100 µM | > 100 µM | > 100 µM | > 100 µM | > 100 |  | > 100 | > 100 µM |  |  |  |  |  |  |  |  |  |  |  |
| CC(=O)Nc1ccc(C(=O)NN2C(=O)CSC2c2ccccc2)cc1 (configuration not stated) |  | > 100 µM | > 100 µM | > 100 µM |  | > 100 | > 100 | > 100 | > 100 µM |  |  |  |  |  |  |  |  | > 100 |  |  |
| COC(=O)CCSC(=O)Nc1ccccc1Cl | > 100 | > 100 µM | > 100 µM | > 100 µM | 28.1 µM | > 100 | > 100 | > 100 | > 100 µM |  |  |  |  |  |  |  |  |  |  |  |
| Clc1ccc(N=CNc2ccc(-c3nc4ccccc4[nH]3)cc2)cc1 | 42.5 | > 100 µM | 63.6 µM | 18.5 µM | > 100 µM | > 100 |  | > 100 | > 100 µM | 22.8 |  | > 100000 nM | 36100 | 0.827 | 48.4 | 0.691 | 42.6 | > 100 | 33.1 | 20.9 |
| CCCCCCCCCCCCCCCC(=O)NCC(OCC)OCC |  | > 100 µM | > 100 µM | > 100 µM | > 100 µM | > 100 |  | > 100 | > 100 µM |  |  |  |  |  |  |  |  |  |  |  |
